# Measured values from patent US20080045537A1, “Chemical Compounds” (priority 2004, published 2008).
# Test system: HIV-1 IIIB (T-tropic, CXCR4 utilizing)
# Test: HOS HIV-1 infectivity assay
# Type: cell-based
# Conditions: Human immunodeficiency virus 1, IIIB; as determined by the infectivity assay; strain not stated in Table 2; read-out: Activity Level
# Method: Compounds were profiled against two HIV-1 viruses, the M-tropic (CCR5 utilizing) Ba-L strain and the T-tropic (CXCR4 utilizing) IIIB strain. Both viruses were propagated in human peripheral blood lymphocytes. Compounds were tested for there ability to block infection of the HOS cell line (expressing hCXCR4/hCCR5/hCD4/pHIV-LTR-luciferase) by either HIV-1 Ba-L or HIV-1 IIIB. Compound cytotoxicity was also examined in the absence of virus addition.
# HOS cells (expressing hCXCR4/hCCR5/hCD4/pHIV-LTR-luciferase) were harvested and diluted in Dulbeccos modified Eagles media supplemented with 2% FCS and non-essential amino acid to a concentration of 60,000 cells/ml. The cells were plated into 96-well plates (100 ul per well) and the plates were placed in a tissue culture incubator (37° C.; 5% CO2/95% air) for a period of 24 h.
# Subsequently, 50 ul of the desired drug solution (4 times the final concentration) was added to each well and the plates were returned to the tissue culture incubator (37° C.; 5% CO2/95% air) for 1 h. Following this incubation 50 ul of diluted virus was added to each well (approximately 2 million RLU per well of virus). The plates were returned to the tissue culture incubator (37° C.; 5% CO2/95% air) and were incubated for a further 96 h.
# Following this incubation the endpoint for the virally infected cultures was quantified following addition of Steady-Glo Luciferase assay system reagent (Promega, Madison, Wis.). Cell viability or non-infected cultures was measured using a CellTiter-Glo luminescent cell viability assay system (Promega, Madison, Wis.). All luminescent readouts are performed on a Topcount luminescence detector (Packard, Meridien, Conn.).
row,SMILES,IC50
1,"CN(Cc1nc2cc(C(=O)NCC3CCNCC3)ccc2[nH]1)C1CCCc2cccnc21 (stereo not drawn) [Example 38, 2-{[Methyl(5,6,7,8-tetrahydroquinolin-8-yl)amino]methyl}-N-(piperidin-4-ylmethyl)-1H-benzimidazole-5-carboxamide]",500 to 10000 nM
2,"CN(Cc1nc2cc(C(=O)NCc3cccnc3)ccc2[nH]1)C1CCCc2cccnc21 (stereo not drawn) [Example 39, 2-{[Methyl(5,6,7,8-tetrahydro-8-quinolinyl)amino]methyl}-N-(3-pyridinylmethyl)-1H-benzimidazole-5-carboxamide]",500 to 10000 nM
3,"CN(Cc1nc2cc(C(=O)NCc3ccncc3)ccc2[nH]1)C1CCCc2cccnc21 (stereo not drawn) [Example 40, 2-{[Methyl(5,6,7,8-tetrahydro-8-quinolinyl)amino]methyl}-N-(4-pyridinylmethyl)-1H-benzimidazole-5-carboxamide]",500 to 10000 nM
4,"CN(Cc1nc2cc(C(=O)NCC3CCCCC3)ccc2[nH]1)C1CCCc2cccnc21 (stereo not drawn) [Example 41, N-(Cyclohexylmethyl)-2-{[methyl(5,6,7,8-tetrahydro-8-quinolinyl)amino]methyl}-1H-benzimidazole-5-carboxamide]",500 to 10000 nM
5,"CN(Cc1nc2ccc(C(=O)N3CCC(CCN4CCCC4)CC3)cc2[nH]1)C1CCCc2cccnc21 (stereo not drawn) [Example 42, N-Methyl-N-{[5-({4-[2-(1-pyrrolidinyl)ethyl]-1-piperidinyl}carbonyl)-1H-benzimidazol-2-yl]methyl}-5,6,7,8-tetrahydro-8-quinolinamine]",500 to 10000 nM
6,"CCN(Cc1nc2cc(C(=O)NCCCCCN)ccc2[nH]1)C1CCCc2cccnc21 (stereo not drawn) [Example 44, N-(5-Aminopentyl)-2-{[ethyl(5,6,7,8-tetrahydro-8-quinolinyl)amino]methyl}-1H-benzimidazole-5-carboxamide]",500 to 10000 nM
7,"CCN(CC)CCN1CCN(C(=O)c2ccc3[nH]c(CN(CC)C4CCCc5cccnc54)nc3c2)CC1 (stereo not drawn) [Example 46, N-{[5-({4-[2-(Diethylamino)ethyl]-1-piperazinyl}carbonyl)-1H-benzimidazol-2-yl]methyl}-N-ethyl-5,6,7,8-tetrahydro-8-quinolinamine]",500 to 10000 nM
8,"CCN(Cc1nc2cc(C(=O)N(C)CCN(C)C)ccc2[nH]1)C1CCCc2cccnc21 (stereo not drawn) [Example 49, N-[2-(Dimethylamino)ethyl]-2-{[ethyl(5,6,7,8-tetrahydro-8-quinolinyl)amino]methyl}-N-methyl-1H-benzimidazole-5-carboxamide]",500 to 10000 nM
9,"CN(Cc1nc2cc(C(=O)N3CCN(C(=O)OCc4ccccc4)CC3)ccc2[nH]1)C1CCCc2cccnc21 (stereo not drawn) [Example 56, Phenylmethyl 4-[(2-{[methyl(5,6,7,8-tetrahydro-8-quinolinyl)amino]methyl}-1H-benzimidazol-5-yl)carbonyl]-1-piperazinecarboxylate]",500 to 10000 nM
10,"CN(Cc1nc2cc(C(=O)N3CCNCC3)ccc2[nH]1)C1CCCc2cccnc21 (stereo not drawn) [Example 57, N-Methyl-N-{[5-(1-piperazinylcarbonyl)-1H-benzimidazol-2-yl]methyl}-5,6,7,8-tetrahydro-8-quinolinamine]",500 to 10000 nM
11,"CN1CCN(C(=O)c2ccc3[nH]c(CN(C)C4CCCc5cccnc54)nc3c2)CC1 (stereo not drawn) [Example 58, N-Methyl-N-({5-[(4-methyl-1-piperazinyl)carbonyl]-1H-benzimidazol-2-yl}methyl)-5,6,7,8-tetrahydro-8-quinolinamine]",100 to 500 nM
12,"CN(Cc1nc2cc(C(=O)N3CCN(Cc4ccccc4)CC3)ccc2[nH]1)C1CCCc2cccnc21 (stereo not drawn) [Example 59, N-Methyl-N-[(5-{[4-(phenylmethyl)-1-piperazinyl]carbonyl}-1H-benzimidazol-2-yl)methyl]-5,6,7,8-tetrahydro-8-quinolinamine]",500 to 10000 nM
13,"CN(Cc1nc2cccc(C(=O)NCCCCCN)c2[nH]1)C1CCCc2cccnc21 (stereo not drawn) [Example 61, N-(5-Aminopentyl)-2-{[methyl(5,6,7,8-tetrahydro-8-quinolinyl)amino]methyl}-1H-benzimidazole-4-carboxamide]",100 to 500 nM
14,"CN(Cc1nc2cccc(C(=O)N3CCN(Cc4ccccc4)CC3)c2[nH]1)C1CCCc2cccnc21 (stereo not drawn) [Example 62, N-Methyl-N-[(4-{[4-(phenylmethyl)-1-piperazinyl]carbonyl}-1H-benzimidazol-2-yl)methyl]-5,6,7,8-tetrahydro-8-quinolinamine]",500 to 10000 nM
15,"COCCNC(=O)c1cccc2nc(CN(C)C3CCCc4cccnc43)[nH]c12 (stereo not drawn) [Example 64, N-[2-(Methyloxy)ethyl]-2-{[methyl(5,6,7,8-tetrahydro-8-quinolinyl)amino]methyl}-1H-benzimidazole-4-carboxamide]",500 to 10000 nM
16,"CN(Cc1nc2c(C(=O)NCCc3cncn3C)cccc2[nH]1)C1CCCc2cccnc21 (stereo not drawn) [Example 67, N-[2-(1-methyl-1H-imidazol-5-yl)ethyl]-2-{[methyl(5,6,7,8-tetrahydro-8-quinolinyl)amino]methyl}-1H-benzimidazole-4-carboxamide]",100 to 500 nM
17,"CN(Cc1nc2c(C(=O)N3CCN(Cc4ccccn4)CC3)cccc2[nH]1)C1CCCc2cccnc21 (stereo not drawn) [Example 68, N-Methyl-N-[(4-{[4-(2-pyridinylmethyl)-1-piperazinyl]-carbonyl}-1H-benzimidazol-2-yl)methyl]-5,6,7,8-tetrahydro-8-quinolinamine]",500 to 10000 nM
18,"CN(Cc1nc2c(C(=O)NCCc3cccnc3)cccc2[nH]1)C1CCCc2cccnc21 (stereo not drawn) [Example 69, 2-{[Methyl(5,6,7,8-tetrahydro-8-quinolinyl)amino]methyl}-N-[2-(3-pyridinyl)ethyl]-1H-benzimidazole-4-carboxamide]",500 to 10000 nM
19,"CN(Cc1nc2c(C(=O)NCCc3ccncc3)cccc2[nH]1)C1CCCc2cccnc21 (stereo not drawn) [Example 71, 2-{[Methyl(5,6,7,8-tetrahydro-8-quinolinyl)amino]methyl}-N-[2-(4-pyridinyl)ethyl]-1H-benzimidazole-4-carboxamide]",500 to 10000 nM
20,"CN1CCN(CCCNC(=O)c2cccc3[nH]c(CN(C)C4CCCc5cccnc54)nc23)CC1 (stereo not drawn) [Example 73, N-[3-(4-Methyl-1-piperazinyl)propyl]-2-{[methyl(5,6,7,8-tetrahydro-8-quinolinyl)amino]methyl}-1H-benzimidazole-4-carboxamide]",100 to 500 nM

# The remaining lines, values ahead:
row,IC50,SMILES
1,< 100 nM,"CN(Cc1nc2cc(C(N)=O)ccc2[nH]1)C1CCCc2cccnc21 (stereo not drawn) [Example 37, 2-{[Methyl(5,6,7,8-tetrahydroquinolin-8-yl)amino]methyl}-1H-benzimidazole-5-carboxamide]"
2,100 to 500 nM,"CCN(Cc1nc2ccc(C(=O)NCCc3cncn3C)cc2[nH]1)C1CCCc2cccnc21 (stereo not drawn) [Example 43, 2-{[ethyl(5,6,7,8-tetrahydro-8-quinolinyl)amino]methyl}-N-[2-(1-methyl-1H-imidazol-5-yl)ethyl]-1H-benzimidazole-5-carboxamide]"
3,100 to 500 nM,"CCN(Cc1nc2cc(C(=O)N3CCN(C)CC3)ccc2[nH]1)C1CCCc2cccnc21 (stereo not drawn) [Example 48, N-Ethyl-N-({5-[(4-methyl-1-piperazinyl)carbonyl]-1H-benzimidazol-2-yl}methyl)-5,6,7,8-tetrahydro-8-quinolinamine]"
4,100 to 500 nM,"CCN(Cc1nc2cc(C(=O)NCCN(C)C)ccc2[nH]1)C1CCCc2cccnc21 (stereo not drawn) [Example 50, N-[2-(Dimethylamino)ethyl]-2-{[ethyl(5,6,7,8-tetrahydro-8-quinolinyl)amino]methyl}-1H-benzimidazole-5-carboxamide]"
5,< 100 nM,"CNCCN(C)C(=O)c1ccc2[nH]c(CN(C)C3CCCc4cccnc43)nc2c1 (stereo not drawn) [Example 51, N-Methyl-N-[2-(methylamino)ethyl]-2-{[methyl(5,6,7,8-tetrahydro-8-quinolinyl)amino]methyl}-1H-benzimidazole-5-carboxamide]"
6,< 100 nM,"CN(C)CCNC(=O)c1ccc2[nH]c(CN(C)C3CCCc4cccnc43)nc2c1 (stereo not drawn) [Example 52, N-[2-(Dimethylamino)ethyl]-2-{[methyl(5,6,7,8-tetrahydro-8-quinolinyl)amino]methyl}-1H-benzimidazole-5-carboxamide]"
7,< 100 nM,"CNCCNC(=O)c1ccc2[nH]c(CN(C)C3CCCc4cccnc43)nc2c1 (stereo not drawn) [Example 53, N-[2-(Methylamino)ethyl]-2-{[methyl(5,6,7,8-tetrahydro-8-quinolinyl)amino]methyl}-1H-benzimidazole-5-carboxamide]"
8,100 to 500 nM,"CN(Cc1nc2cc(C(=O)NCC(C)(C)CN)ccc2[nH]1)C1CCCc2cccnc21 (stereo not drawn) [Example 54, N-(3-Amino-2,2-dimethylpropyl)-2-{[methyl(5,6,7,8-tetrahydro-8-quinolinyl)amino]methyl}-1H-benzimidazole-5-carboxamide]"
9,< 100 nM,"CN(C)CCN(C)C(=O)c1ccc2[nH]c(CN(C)C3CCCc4cccnc43)nc2c1 (stereo not drawn) [Example 55, N-[2-(Dimethylamino)ethyl]-N-methyl-2-{[methyl(5,6,7,8-tetrahydro-8-quinolinyl)amino]methyl}-1H-benzimidazole-5-carboxamide]"
10,< 100 nM,"CN(Cc1nc2c(C(=O)NCCCN3CCOCC3)cccc2[nH]1)C1CCCc2cccnc21 (stereo not drawn) [Example 74, 2-{[Methyl(5,6,7,8-tetrahydro-8-quinolinyl)amino]methyl}-N-[3-(4-morpholinyl)propyl]-1H-benzimidazole-4-carboxamide]"
